Laboratory results from ChEMBL document CHEMBL3885881, “DrugMatrix”.

Species: Rattus norvegicus
Assay: DrugMatrix - Regimen: Daily Repeat
Type: toxicity, organism-based, Sprague-Dawley
Parameters: regimen Daily Repeat, gender Male, age 6-8 weeks
Details: in vivo, po, route oral GAVAGE, vehicle .5 % CMC; for BASOPHIL / EOSINOPHIL / ERYTHROCYTE COUNT / HEMATOCRIT / HEMOGLOBIN / LEUKOCYTE COUNT / LYMPHOCYTE / MEAN CORPUSCULAR HEMOGLOBIN / MEAN CORPUSCULAR HEMOGLOBIN CONCENTRATION / MEAN CORPUSCULAR VOLUME / MONOCYTE / NEUTROPHIL / PLATELET COUNT: tissue Blood; for ALANINE AMINOTRANSFERASE / ALBUMIN / ALKALINE PHOSPHATASE / ASPARTATE AMINOTRANSFERASE / BLOOD UREA NITROGEN / CHLORIDE / CHOLESTEROL / CREATINE PHOSPHOKINASE / CREATININE / GLUCOSE / PHOSPHORUS / POTASSIUM / SODIUM / TOTAL PROTEIN: tissue Plasma
[1] = 0 mg/kg, 72 h, dose level Control, time 3 day
[2] = 0 mg/kg, 120 h, dose level Control, time 5 day
[3] = 28 mg/kg, 72 h, dose level Low, time 3 day
[4] = 28 mg/kg, 120 h, dose level Low, time 5 day
[5] = 2000 mg/kg, 72 h, dose level High, time 3 day
[6] = 2000 mg/kg, 120 h, dose level High, time 5 day

For `CCN1CCN(c2cc3c(cc2F)c(=O)c(C(=O)O)cn3C2CC2)CC1` [ENROFLOXACIN], the BASOPHIL [1] was 0%, the EOSINOPHIL [1] was 0.4% and the “ERYTHROCYTE COUNT” value [1] was 6.43 x10E6/uL. The HEMATOCRIT [1] was 37.36%, the HEMOGLOBIN [1] was 13.98 G/DL and the “LEUKOCYTE COUNT” value [1] was 13 x10E3/uL. The LYMPHOCYTE [1] was 81.4%, the “MEAN CORPUSCULAR HEMOGLOBIN” value [1] was 21.9 pg and the “MEAN CORPUSCULAR HEMOGLOBIN CONCENTRATION” value [1] was 37.4 G/DL. The “MEAN CORPUSCULAR VOLUME” value [1] was 58.52 fL, the MONOCYTE [1] was 0.4% and the NEUTROPHIL [1] was 18%. For the same molecule, the “PLATELET COUNT” value [1] was 1386 x10E3/uL, the “ALANINE AMINOTRANSFERASE” value [1] was 39.33 u/L and the ALBUMIN [1] was 3.57 G/DL. For the same molecule, the “ALKALINE PHOSPHATASE” value [1] was 283.83 u/L, the “ASPARTATE AMINOTRANSFERASE” value [1] was 69.5 u/L and the “BLOOD UREA NITROGEN” value [1] was 14.83 mg/dL. For the same molecule, the CHLORIDE [1] was 107.33 MEQ/L, the CHOLESTEROL [1] was 75.17 mg/dL and the “CREATINE PHOSPHOKINASE” value [1] was 107.67 u/L. It also gave a CREATININE [1] of 0.48 mg/dL, a GLUCOSE [1] of 172.5 mg/dL and a PHOSPHORUS [1] of 10.48 mg/dL. For the same molecule, the POTASSIUM [1] was 6.9 MEQ/L, the SODIUM [1] was 152.33 MEQ/L and the “TOTAL PROTEIN” value [1] was 5.9 G/DL. For the same molecule, the BASOPHIL [2] was 0%, the EOSINOPHIL [2] was 0.4% and the “ERYTHROCYTE COUNT” value [2] was 6.96 x10E6/uL. For the same molecule, the HEMATOCRIT [2] was 41.12%, the HEMOGLOBIN [2] was 15.24 G/DL and the “LEUKOCYTE COUNT” value [2] was 11.06 x10E3/uL. For the same molecule, the LYMPHOCYTE [2] was 88.6%, the “MEAN CORPUSCULAR HEMOGLOBIN” value [2] was 21.96 pg and the “MEAN CORPUSCULAR HEMOGLOBIN CONCENTRATION” value [2] was 37.1 G/DL. The “MEAN CORPUSCULAR VOLUME” value [2] was 59.12 fL, the MONOCYTE [2] was 0.2% and the NEUTROPHIL [2] was 10.8%. For the same molecule, the “PLATELET COUNT” value [2] was 1155.8 x10E3/uL, the “ALANINE AMINOTRANSFERASE” value [2] was 36.33 u/L and the ALBUMIN [2] was 3.72 G/DL. The “ALKALINE PHOSPHATASE” value [2] was 340.33 u/L, the “ASPARTATE AMINOTRANSFERASE” value [2] was 68.33 u/L and the “BLOOD UREA NITROGEN” value [2] was 15 mg/dL. The CHLORIDE [2] was 108.17 MEQ/L, the CHOLESTEROL [2] was 74.67 mg/dL and the “CREATINE PHOSPHOKINASE” value [2] was 110.67 u/L. For the same molecule, the CREATININE [2] was 0.47 mg/dL, the GLUCOSE [2] was 171.33 mg/dL and the PHOSPHORUS [2] was 10.05 mg/dL. For the same molecule, the POTASSIUM [2] was 6.7 MEQ/L, the SODIUM [2] was 155.5 MEQ/L and the “TOTAL PROTEIN” value [2] was 6.33 G/DL. The BASOPHIL [3] was 0%, the EOSINOPHIL [3] was 0.33% and the “ERYTHROCYTE COUNT” value [3] was 6.63 x10E6/uL. For the same molecule, the HEMATOCRIT [3] was 40.9%, the HEMOGLOBIN [3] was 15.27 G/DL and the “LEUKOCYTE COUNT” value [3] was 15.3 x10E3/uL. The LYMPHOCYTE [3] was 87.67%, the “MEAN CORPUSCULAR HEMOGLOBIN” value [3] was 23.03 pg and the “MEAN CORPUSCULAR HEMOGLOBIN CONCENTRATION” value [3] was 37.33 G/DL. For the same molecule, the “MEAN CORPUSCULAR VOLUME” value [3] was 61.73 fL, the MONOCYTE [3] was 0.33% and the NEUTROPHIL [3] was 11.67%. The “PLATELET COUNT” value [3] was 1320.33 x10E3/uL, the “ALANINE AMINOTRANSFERASE” value [3] was 35.67 u/L and the ALBUMIN [3] was 3.53 G/DL. For the same molecule, the “ALKALINE PHOSPHATASE” value [3] was 256 u/L, the “ASPARTATE AMINOTRANSFERASE” value [3] was 57 u/L and the “BLOOD UREA NITROGEN” value [3] was 14 mg/dL. The CHLORIDE [3] was 106.67 MEQ/L, the CHOLESTEROL [3] was 68.67 mg/dL and the “CREATINE PHOSPHOKINASE” value [3] was 123 u/L. It also gave a CREATININE [3] of 0.5 mg/dL, a GLUCOSE [3] of 170 mg/dL and a PHOSPHORUS [3] of 11.27 mg/dL. The POTASSIUM [3] was 6.83 MEQ/L, the SODIUM [3] was 151.67 MEQ/L and the “TOTAL PROTEIN” value [3] was 5.93 G/DL. The BASOPHIL [4] was 0%, the EOSINOPHIL [4] was 0.67% and the “ERYTHROCYTE COUNT” value [4] was 7.38 x10E6/uL. For the same molecule, the HEMATOCRIT [4] was 43.67%, the HEMOGLOBIN [4] was 15.73 G/DL and the “LEUKOCYTE COUNT” value [4] was 15.77 x10E3/uL. The LYMPHOCYTE [4] was 91%, the “MEAN CORPUSCULAR HEMOGLOBIN” value [4] was 21.23 pg and the “MEAN CORPUSCULAR HEMOGLOBIN CONCENTRATION” value [4] was 35.97 G/DL. The “MEAN CORPUSCULAR VOLUME” value [4] was 58.97 fL, the MONOCYTE [4] was 0% and the NEUTROPHIL [4] was 8.33%. The “PLATELET COUNT” value [4] was 1186 x10E3/uL, the “ALANINE AMINOTRANSFERASE” value [4] was 39 u/L and the ALBUMIN [4] was 3.77 G/DL. The “ALKALINE PHOSPHATASE” value [4] was 351 u/L, the “ASPARTATE AMINOTRANSFERASE” value [4] was 67.67 u/L and the “BLOOD UREA NITROGEN” value [4] was 13.67 mg/dL. For the same molecule, the CHLORIDE [4] was 115 MEQ/L, the CHOLESTEROL [4] was 67.33 mg/dL and the “CREATINE PHOSPHOKINASE” value [4] was 110 u/L. The CREATININE [4] was 0.6 mg/dL, the GLUCOSE [4] was 194.33 mg/dL and the PHOSPHORUS [4] was 10 mg/dL. The POTASSIUM [4] was 6.77 MEQ/L, the SODIUM [4] was 161.67 MEQ/L and the “TOTAL PROTEIN” value [4] was 6.37 G/DL. The BASOPHIL [5] was 0%, the EOSINOPHIL [5] was 0% and the “ERYTHROCYTE COUNT” value [5] was 6.71 x10E6/uL. For the same molecule, the HEMATOCRIT [5] was 40.2%, the HEMOGLOBIN [5] was 15 G/DL and the “LEUKOCYTE COUNT” value [5] was 9.93 x10E3/uL. The LYMPHOCYTE [5] was 94%, the “MEAN CORPUSCULAR HEMOGLOBIN” value [5] was 22.37 pg and the “MEAN CORPUSCULAR HEMOGLOBIN CONCENTRATION” value [5] was 37.33 G/DL. For the same molecule, the “MEAN CORPUSCULAR VOLUME” value [5] was 59.87 fL, the MONOCYTE [5] was 0.33% and the NEUTROPHIL [5] was 5.67%. The “PLATELET COUNT” value [5] was 1314.33 x10E3/uL, the “ALANINE AMINOTRANSFERASE” value [5] was 34 u/L and the ALBUMIN [5] was 3.4 G/DL. The “ALKALINE PHOSPHATASE” value [5] was 233.33 u/L, the “ASPARTATE AMINOTRANSFERASE” value [5] was 47.33 u/L and the “BLOOD UREA NITROGEN” value [5] was 13.33 mg/dL. The CHLORIDE [5] was 107.67 MEQ/L, the CHOLESTEROL [5] was 72.67 mg/dL and the “CREATINE PHOSPHOKINASE” value [5] was 92.33 u/L. For the same molecule, the CREATININE [5] was 0.67 mg/dL, the GLUCOSE [5] was 183.33 mg/dL and the PHOSPHORUS [5] was 11.5 mg/dL. For the same molecule, the POTASSIUM [5] was 7.2 MEQ/L, the SODIUM [5] was 152.67 MEQ/L and the “TOTAL PROTEIN” value [5] was 5.53 G/DL. The BASOPHIL [6] was 0%, the EOSINOPHIL [6] was 0% and the “ERYTHROCYTE COUNT” value [6] was 7.19 x10E6/uL. The HEMATOCRIT [6] was 42.1%, the HEMOGLOBIN [6] was 14.8 G/DL and the “LEUKOCYTE COUNT” value [6] was 14.2 x10E3/uL. The LYMPHOCYTE [6] was 97.67%, the “MEAN CORPUSCULAR HEMOGLOBIN” value [6] was 20.57 pg and the “MEAN CORPUSCULAR HEMOGLOBIN CONCENTRATION” value [6] was 35.17 G/DL. The “MEAN CORPUSCULAR VOLUME” value [6] was 58.63 fL, the MONOCYTE [6] was 0% and the NEUTROPHIL [6] was 2.33%. For the same molecule, the “PLATELET COUNT” value [6] was 1312.33 x10E3/uL, the “ALANINE AMINOTRANSFERASE” value [6] was 39 u/L and the ALBUMIN [6] was 3.43 G/DL. For the same molecule, the “ALKALINE PHOSPHATASE” value [6] was 266 u/L, the “ASPARTATE AMINOTRANSFERASE” value [6] was 50 u/L and the “BLOOD UREA NITROGEN” value [6] was 11.67 mg/dL. For the same molecule, the CHLORIDE [6] was 104 MEQ/L, the CHOLESTEROL [6] was 56 mg/dL and the “CREATINE PHOSPHOKINASE” value [6] was 95.33 u/L. The CREATININE [6] was 0.6 mg/dL, the GLUCOSE [6] was 152.67 mg/dL and the PHOSPHORUS [6] was 11.4 mg/dL. The POTASSIUM [6] was 6.03 MEQ/L, the SODIUM [6] was 150.67 MEQ/L and the “TOTAL PROTEIN” value [6] was 5.53 G/DL.
